# In US8318184B2, “MGLU2 agonists” (Eli Lilly and Company, priority 2009, dated 2012):
# Assays:
# Sprague-Dawley rats [1] = assay: Reversal of Phencyclidine (PCP)-Induced Hyperlocomotor Activity in Rats; assay type: in vivo; conditions: Rattus norvegicus, p.o., overnight fasted, 4 hours prior to 5 mg/kg PCP
# Source text: Administration of NMDA receptor antagonists, such as ketamine or phencyclidine (PCP), produces psychotomimetic-like effects in humans that are similar to those symptoms observed in patients with schizophrenia.
# Motor activity is monitored by placing individual male, Sprague-Dawley (Harlan, Indianapolis, Ind.) rats in transparent, plastic shoe-box cages of the dimensions 45×25×20 cm, with 1 cm depth of wood chips as bedding, and a metal grill on top of the cage. Motor monitors (Kinder Scientific) consist of a rectangular rack of 12 photobeams arranged in an 8×4 formation, (or a high density grouping of 22 in a 15×7 pattern) at a height of 5 cm, with a second rack (for measuring rearing behaviors) at a height of 15 cm. The shoe box cage is placed inside of these racks, with the racks on a 3 foot high tabletop in an isolated room. A compound of the present invention is dosed (intraperitoneal route (i.p.), non-prodrug) within a range of 0.3-10 mg/kg, 30 minutes prior to a 5 mg/kg challenge dose of phencyclidine (PCP). A compound of the present invention is dosed (oral route, prodrug) within a range of 0.3-30 mg/kg, in overnight fasted rats, 4 hours prior to a 5 mg/kg challenge dose of PCP. On the test day, rats are placed in the test cage and allowed to acclimate for 30 minutes prior to PCP challenge; rats are monitored for an additional 60 minutes following PCP administration.
# Data analysis and ED50 calculations are conducted using GraphPad Prism (San Diego, Calif. USA). Power analyses have determined that 8-10 rats per group are needed to have appropriate statistical power for detecting treatment differences (power=0.8). A one-way analysis of variance (ANOVA) with a post-hoc Dunnett's multiple comparison test is conducted on the total 60 minute locomotor activity. ED50 calculations are performed using non-linear regression curve fitting on percent reversal transformed data for each dose.
# hPepT1 = molecular target: T1, hPepT1 (Homo sapiens, UniProt P46059); assay: In Vitro PepT1 GlySar Inhibition Screen and IC50 Determination; assay type: cell-based; conditions: for inhibition at 5000 µM: 5 mM, pH 6.0, PepT1 transiently transfected HeLa cells, read-out: hPepT1 [3H]Gly-Sar uptake inhibition at 5 mM
# T1 construct: expressed in transfected cells; host or cells: HeLa cells (ATCC), transient transfection with FuGene6
# T1 sequence (P46059 1-708): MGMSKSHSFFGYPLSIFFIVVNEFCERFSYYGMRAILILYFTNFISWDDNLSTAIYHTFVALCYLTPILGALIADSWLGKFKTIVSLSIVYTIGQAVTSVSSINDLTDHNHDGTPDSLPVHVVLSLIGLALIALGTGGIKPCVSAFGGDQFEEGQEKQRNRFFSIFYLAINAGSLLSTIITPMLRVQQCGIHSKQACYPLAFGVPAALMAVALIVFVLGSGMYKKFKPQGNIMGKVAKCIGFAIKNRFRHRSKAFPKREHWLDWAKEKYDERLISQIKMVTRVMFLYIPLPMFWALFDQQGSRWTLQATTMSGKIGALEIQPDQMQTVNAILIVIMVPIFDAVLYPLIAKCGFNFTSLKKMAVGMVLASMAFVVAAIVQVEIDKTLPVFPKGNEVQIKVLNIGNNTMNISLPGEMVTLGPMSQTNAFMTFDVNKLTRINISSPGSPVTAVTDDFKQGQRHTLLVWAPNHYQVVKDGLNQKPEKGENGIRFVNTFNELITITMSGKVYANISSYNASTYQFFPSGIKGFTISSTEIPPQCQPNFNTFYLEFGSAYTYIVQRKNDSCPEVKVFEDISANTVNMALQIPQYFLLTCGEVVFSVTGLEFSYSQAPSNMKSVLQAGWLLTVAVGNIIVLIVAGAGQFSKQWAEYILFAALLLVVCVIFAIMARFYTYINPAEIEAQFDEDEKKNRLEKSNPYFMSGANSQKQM
# Procedure: PepT1 assays are established to examine the ability of the amino acid prodrug compounds to interact with the intestinal absorption transporter PepT1.
# HeLa cells, […], (American Type Culture Collection) are grown in Hyclone Medium (Invitrogen, Cat# SH30243) containing 10% fetal bovine serum (FBS), 0.1 mM non essential amino acids (NEAA), and 100 units/mL penicillin with 100 μg/mL streptomycin at 37° C. in a 5% CO2 humidified atmosphere. The cell line is used for up to 40 passages and then discarded. Frozen cells in 1 ml vials are thawed in water bath for 1-2 minutes and added to 5 mL of cell medium at 37° C. Each of the T-flasks is provided with 8.5 mL of the fresh medium and 1.5 mL of the cell stock. Cells are passaged twice during a week. This is achieved by rinsing the flasks with 10 mL of phosphate buffered saline-ethylene diaminetetra acetic acid (PBS-EDTA), adding 2 mL of trypsin for 2-5 minutes, to detach the cells, and adding 8 mL of fresh medium to inhibit further activity of trypsin. Each new flask receives a combination of 8.5 mL of fresh medium and 1.5 mL of cell stock, in order to obtain 1:6 cell dilution. Cells are incubated at 37° C., until ready for the uptake study.
# Cells that are 70-80% confluent in the T-flasks are plated 1 day prior to the transfection procedure. The flask with the cell stock is treated with PBS-EDTA and trypsin to detach the cells, and transfection medium is used from this point. Transfection medium consists of Dulbecco's Modified Eagle Medium (DMEM)+NEAA. To each well, 0.5 mL of the cell mixture is added (1.3×10^5 is the desired cell concentration) and the cells are incubated at 37° C. overnight. Twenty four hours before the assay, cells are transfected with PEPT1. Transfection mixture is prepared by mixing 600 μL of serum free transfection medium, 18 μL of FuGene6 (Roche Diagnostics), and 11 μg of the PepT1 DNA. The transfection reagent-DNA complex is incubated for 20 minutes and 24 μL of the reagent-DNA complex is added to each well.
# J. Pharm. Exper Ther. 310:437-445). […] Uptake media consists of 140 mM NaCl, 5.4 mM KCl, 1.8 mM CaCl2, 0.8 mM MgSO4, 5 mM Glucose, 25 mM tris(hydroxymethyl)aminomethane buffer (TRIS). The solution is then brought to pH 6.0 using 2-(N-morpholino)ethanesulfonic acid. The incubation volume is 500 μL and is performed at room temperature for 3 minutes. To stop the uptake at the conclusion of the incubation time, the uptake media is aspirated off of the cell monolayer and 500 μL of ice cold PBS added to the well. The cells are washed 3 times with 500 μL of room temperature PBS without Ca^+2 and Mg^+2. The cells are then lysed with 300 μL of 1% Triton X100 H2O solution. […] A no inhibitor control is established and the percent inhibition of each prodrug is calculated with respect to this control.
# The incubation and sampling procedures are exactly the same as the PepT1 screen described above. […]
# [2] = 1 h, 10 µM, pH 7.4
# Procedure: Frozen human duodenum intestinal homogenates (1:2 tissue:buffer ratio using 100 mM Tris Phosphate buffer, pH 7.4) are obtained from Celsius In Vitro Technologies (Baltimore, Md.) that were both phenylmethylsulphonylfluoride (PMSF) and EDTA free.
# Each lot of human duodenum is obtained from a single donor and the intestine is scraped and the sections are frozen separate. All original tissue collections are performed at 4° C. and immediately frozen at −70° C. Human intestinal homogenates are thawed and diluted to a final protein concentration of 0.5 mg/mL in 100 mM PBS buffer, pH 7.4 immediately prior to the incubations.
# Incubations are conducted in 96-well plates and all prodrug compounds are run in duplicate on each day. Stock prodrug compound solutions are prepared in water at a concentration of 1 mM. A 200 μL aliquot of 0.5 mg/mL intestinal homogenate and 196 μL of 100 mM PBS buffer are placed in a 96-well plate in a 37° C. water bath. Using a 96-well pipettor, 4 μL of the 1 mM prodrug compound solution is transferred into the homogenate. Immediately after addition of the prodrug compound (time zero) and after 1 hour incubation, 50 μL samples of the incubation mixture are removed using an automated disposable simultaneous 96 well pipettor and added directly to 200 μL of methanol quench solution containing 100 ng/mL of Internal Standard. The samples are then centrifuged at 3500 rpm for 5 minutes at 10° C. The supernatant (200 μL) is transferred to a final 96 well PCR plate and sealed for analysis by LC/MS/MS.
# Concentrations of hydrolyzed compounds of the present invention in the incubation mixtures are determined using LC/MS/MS detection on a Sciex API 4000 quadrapole mass spectrometer with Analyst version 1.4.2, TurboIonSpray, positive ionization, and Selected Reaction Monitoring (SRM). A Waters Atlantis® T3 (20×2.1 mm, 5 μM) HPLC column is used at ambient temperature with a flow rate of 1.0 mL/min and a mobile phase gradient from 0.1% mobile phase A to 99% mobile phase A. Mobile phase A is 1000:5 water:heptafluorobuteric acid and mobile phase B is 1:1 methanol:glacial acetic acid.
# Concentrations of hydrolyzed compounds of the present invention in the intestinal incubation mixtures are determined from standard curves prepared by replicate two-fold dilution starting at 10 μM in 100 mM PBS pH 7.4 and subsequently quenched with methanol-internal standard solution identical to the samples. Averages and standard deviations are calculated using Microsoft® Office Excel® 2007. Amount of hydrolysis is determined as a molar percentage of compound formed relative to prodrug compound concentration added. […] Final values are then normalized relative to the formation of Internal Compound Drug A.
# NIH-Swiss mice = assay: Forced Swim Test in mice; assay type: in vivo, mouse; conditions: positive control over multiple studies
# Procedure: (§1) In this assay, mechanisms with purported antidepressant-like activity decrease immobility in a brief inescapable forced swim episode.
# The forced-swim test is conducted with both mice (male, NIH-Swiss mice, 20-25 g, Harlan Sprague-Dawley, Indianapolis, Ind.) and rats (male, Sprague-Dawley rats, 250-350 g, Harlan Sprague-Dawley, Indianapolis, Ind.). Mice are placed in clear plastic cylinders (diameter 10 cm; height: 25 cm) filled to 6 cm with 22-25° C. water for six min. The duration of immobility is recorded during the last 4 min of a six-minute trial. Rats are treated similarly, albeit in clear plastic cylinders of larger dimensions (diameter: 18 cm; height: 40 cm) filled with water (22-25° C.) to a depth of 16 cm for 15 min. Additionally, mice receive a single forced swim exposure; rats receive two, 5-min sessions separated by 24 hours (data is recorded only on Day 2). […] Imipramine is used as a positive control for these studies. […] Compounds are in a clear solution. The amount of time spent immobile (defined as movements only necessary to keep the subject's head above water) is the dependent measure and recorded by an observer blinded to the drug treatment of the subjects. Data are analyzed by post-hoc Dunnett's test with alpha level set at 0.05. The mouse version of the forced swim test is most commonly used.
# Sprague-Dawley rats [3] = assay: Forced Swim Test in rats; assay type: in vivo, rat; conditions: 30 mg/kg
# Procedure: as §1
# The forced-swim test is conducted with both mice (male, NIH-Swiss mice, 20-25 g, Harlan Sprague-Dawley, Indianapolis, Ind.) and rats (male, Sprague-Dawley rats, 250-350 g, Harlan Sprague-Dawley, Indianapolis, Ind.). Mice are placed in clear plastic cylinders (diameter 10 cm; height: 25 cm) filled to 6 cm with 22-25° C. water for six min. The duration of immobility is recorded during the last 4 min of a six-minute trial. Rats are treated similarly, albeit in clear plastic cylinders of larger dimensions (diameter: 18 cm; height: 40 cm) filled with water (22-25° C.) to a depth of 16 cm for 15 min. Additionally, mice receive a single forced swim exposure; rats receive two, 5-min sessions separated by 24 hours (data is recorded only on Day 2). The compound of Example 1 is tested in mice using intraperitoneal dosing (1, 3, or 10 mg/kg), 60 min prior to testing. […] Example 2 is administered 5 min following the first forced swim exposure and 120 min prior to the test session on Day 2. Imipramine is used as a positive control for these studies. Compounds are formulated in a water vehicle, with minimal NaOH being added to Example 1 and Example 2. Compounds are in a clear solution. The amount of time spent immobile (defined as movements only necessary to keep the subject's head above water) is the dependent measure and recorded by an observer blinded to the drug treatment of the subjects. Data are analyzed by post-hoc Dunnett's test with alpha level set at 0.05. The mouse version of the forced swim test is most commonly used. An ED60 value (60% of the amount of immobility relative to vehicle controls) is calculated to estimate potency of the test compounds.
SMILES,inhibition at 5000 µM (hPepT1) [%],human intestinal hydrolysis relative to Internal Prodrug Compound A [2] [%],other results
"CSCC[C@H](N)C(=O)N[C@@]1(C(=O)O)C[C@@H](Sc2nnc[nH]2)[C@H]2[C@H](C(=O)O)[C@H]21.Cl [Example 3, (1R,2S,4R,5R,6R)-2-[[(2S)-2-Amino-4-methylsulfanyl-butanoyl]amino]-4-(4H-1,2,4-triazol-3-ylsulfanyl)bicyclo[3.1.0]hexane-2,6-dicarboxylic acid hydrochloride]",51,53,"ED50 (Sprague-Dawley rats [1]): 5.46 mg/kg; IC50 (hPepT1; 0.0625 to 25 mM, PepT1 transfected HeLa cells, read-out: hPepT1 [3H]Gly-Sar uptake inhibition IC50): 5.36 mM"
"CC(C)C[C@H](N)C(=O)N[C@@]1(C(=O)O)C[C@@H](Sc2nnc[nH]2)[C@H]2[C@H](C(=O)O)[C@H]21.Cl [Example 4, (1R,2S,4R,5R,6R)-2-[[(2S)-2-Amino-4-methyl-pentanoyl]amino]-4-(4H-1,2,4-triazol-3-ylsulfanyl)bicyclo[3.1.0]hexane-2,6-dicarboxylic acid hydrochloride]",32,45,–
"Cl.NCC(=O)N[C@@]1(C(=O)O)C[C@@H](Sc2nnc[nH]2)[C@H]2[C@H](C(=O)O)[C@H]21 [Example 5, (1R,2S,4R,5R,6R)-2-[(2-Aminoacetyl)amino]-4-(4H-1,2,4-triazol-3-ylsulfanyl)bicyclo[3.1.0]hexane-2,6-dicarboxylic acid hydrochloride]",44,35,–
"N[C@@]1(C(=O)OCc2ccccc2)C[C@@H](Sc2nnc[nH]2)[C@H]2[C@H](C(=O)OCc3ccccc3)[C@H]21 [Example 6, Dibenzyl (1R,2S,4R,5R,6R)-2-amino-4-(4H-1,2,4-triazol-3-ylsulfanyl)bicyclo[3.1.0]hexane-2,6-dicarboxylate]",–,2,–
"CN(C)CCCN1c2ccccc2CCc2ccccc21 [imipramine, reference compound]",–,–,"ED60 (NIH-Swiss mice): 8.6 ± 1.2 mg/kg; effect, % of vehicle immobility levels (NIH-Swiss mice): 39±1.2%; immobility as % of vehicle controls (Sprague-Dawley rats [3]): 70%"
